Here are results for eight compounds from publication PMC8153904 (ACS Omega, 2021).

Each structure is given as a SMILES string. “Also recorded” adds a separate entry of the source.

One series is described as follows: Cytotoxicity assay. The class given is cell-based, hamster. To be noted: hamster, BHK-21 cells, CC50, BHK-21 cells, 24 h, MTT.
The next series concerns BHK-21 cells. The experiment in a line: Cytotoxicity assay. To be noted: for cytotoxic effect over the tested concentrations: concentrations of 1 up to 100 μM, mixtures of four stereoisomers. The class given is cell-based, hamster.
Another series concerns CHIKV-NanoLuc. Nature of the series: Antiviral activity assay, CHIKV-NanoLuc at low MOI in BHK-21 cells. To be noted: for EC50: Chikungunya virus, BHK-21, 16 h; for viral infection at 100 μM / concentration at which the inhibitory effect appeared: mixtures of four stereoisomers; for concentration at which the inhibitory effect appeared: tested at 1 up to 100 μM. The series is classed as cell-based, Chikungunya virus.

In the case of `Cc1cc(C)cc([C@@H]2C[C@H]2C(=O)NC(C(N)=O)c2ccc(C)c(C)c2)c1` (stereo partly drawn) [D27], the CC50 at 24 h in “Cytotoxicity assay” was below 0.1 µM. Further, in the series with BHK-21 cells, the “concentration at which cytotoxicity appeared” value was determined as 100 nM and the “cytotoxic effect over the tested concentrations” value is reported as “toxic at all concentrations”.

`Cc1cc(C)cc([C@@H]2C[C@H]2C(=O)NC(C(N)=O)c2ccc(C)c(C(F)(F)F)c2)c1` (stereo partly drawn) [D119] displayed an EC50 with CHIKV-NanoLuc of 32 µM. This compound also had a CC50 at 24 h in “Cytotoxicity assay” above 100 µM.

In turn, `Cc1cc(F)cc([C@@H]2C[C@H]2C(=O)NC(C(N)=O)c2ccc(C)c(C(F)(F)F)c2)c1` (stereo partly drawn) [D127] came in with an EC50 with CHIKV-NanoLuc of 29.6 µM. Also, in “Cytotoxicity assay”, the CC50 at 24 h is above 100 µM. Besides, the “concentration at which cytotoxicity appeared” value in the series with BHK-21 cells is on record as “more than 100 μM”.

As for `Cc1cc(C)cc([C@@H]2C[C@H]2C(=O)NC(C(=O)NCc2ccccc2)c2ccc(C)c(C)c2)c1` (stereo partly drawn) [D160], in the series with CHIKV-NanoLuc (BHK-21 cells), the “viral infection at 100 μM” value is listed as “almost completely inhibited” and the “concentration at which the inhibitory effect appeared” value was found to be 10 µM. For the same compound, the EC50 in the series on CHIKV-NanoLuc is 10.5 µM. Moreover, in the series “Cytotoxicity assay”, the CC50 at 24 h is above 100 µM. In the series with BHK-21 cells, the “cytotoxic effect over the tested concentrations” value was “no cytotoxic effect”.

On to `Cc1cc(C)cc([C@@H]2C[C@H]2C(=O)NC(C(=O)NC(C)(C)C)c2ccc(C)c(C)c2)c1` (stereo partly drawn) [D161], for which, in the series with CHIKV-NanoLuc (BHK-21 cells), the “viral infection at 100 μM” value is reported as “almost completely inhibited” and the “concentration at which the inhibitory effect appeared” value worked out at 10 µM. This compound also gave a concentration for a half-maximal effect (EC50) with CHIKV-NanoLuc of 13.9 µM. Further, the CC50 at 24 h in the series “Cytotoxicity assay” is above 100 µM. For the same compound, the “cytotoxicity effect at 100 μM” value in the series with BHK-21 cells (100 μM, mixture of four stereoisomers) was “moderate cytotoxicity effect; also recorded: moderate cytotoxic effect”.

On to `Cc1cc(C)cc([C@@H]2C[C@H]2C(=O)NC(C(=O)NC2CC2)c2ccc(C)c(C)c2)c1` (stereo partly drawn) [D163], for which the “antiviral activity at the maximum nontoxic concentration” value in the series with CHIKV-NanoLuc (BHK-21 cells, CHIKV-NanoLuc) is on record as “no antiviral activity”. In addition, the “concentration at which cytotoxicity appeared” value in the series with BHK-21 cells is recorded as “more than 10 μM”.

Regarding `Cc1cc(C)cc([C@@H]2C[C@H]2C(=O)NC(C(=O)NC2CCCC2)c2ccc(C)c(C)c2)c1` (stereo partly drawn) [D164], the EC50 with CHIKV-NanoLuc was determined as 50.5 µM. In the series “Cytotoxicity assay”, this compound displayed a CC50 at 24 h above 100 µM.

With `COc1ccc(CNC(=O)C(NC(=O)[C@@H]2C[C@H]2c2cc(C)cc(F)c2)c2ccc(C)c(C(F)(F)F)c2)c(OC)c1` (stereo partly drawn) [D166], in the series on CHIKV-NanoLuc (BHK-21 cells, CHIKV-NanoLuc, low MOI), the “antiviral (anti-CHIKV) activity, in words” value is reported as “complete loss of the activity”. Besides, the 50% cytotoxic concentration (CC50) at 24 h in the series “Cytotoxicity assay” is above 100 µM.
